From patent US7074774B2, “Use of N-acetyl-D-glucosamine in the manufacture of pharmaceutical useful for treating cardio-cerebrovascular anoxemia” (Third Military Medical University Chinese People's …, priority 2001, dated 2006)

What was measured:
[1] = system: rat with cerebral ischemia and Re-Infusion; experiment: Protecting effect in rat with cerebral ischemia and re-infusion (four arteries ligation model); format: in vivo, Wistar rat
Source text: The following experimental example is used to illustrate the effect of resisting cardiac and cerebral ischemia as well as oxygen-deficiency, and the low toxicity of the compound of the present invention (the compound of formula (I)). • I. The protecting effect of N-acetyl-D-glucosamine in rat with cerebral ischemia and Re-Infusion • 1. Animal: Wistar rat provided by the 3rd Military Medical University P.R. China. Half of them are male, the other are female. • 2. Method for making model: the model is made by four arteries ligation method to cause the rat to be cerebral ischemia, in which for each rat, the vertebra artery in the vertebra foramen of the second cervical vertebra is blocked by hot coagulation with electric coagulator, then separate the two common carotid artery in the front of it, after that, remain the surgical thread jacket, sewing up. Next day, after the animal is recovered from anesthesia, open the sewing thread in the front of the animal, clamp the two common carotid artery with artery clip, it needs 20 min. in total. […] Grouping: the animals are divided into four groups (eight animals in each group) […]
Astragalus Group: that is, before the animal is treated, administrating Astragalus injection solution by abdominal injection.
Astragalus+N-acetyl-D-glucosanime Group: that is, 30 min before clamping, administrating a mixture injection solution of 0.25 g/kg of N-acetyl-D-glucosanime and 2 g/kg of Astragalus by abdominal injection.
The control Group: not administrating any medicament, but injecting physiological salt solution with the same volume.
The animals in each group are all fed in standard. In the process of operation, please pay attention to asepsis.
Abnormal ratio of the water content in the brain (by dry-wet weight method):
Scoring the symptoms of nerve behavior • 0 score: no symptom of nerve defect, moving normally • 1 score: cannot extend the front claw at the opposite side • 2 score: when walking, the body rotates toward the hemiplegia side • 3 score: the body collapse down toward the hemiplegia side • 4 score: not capable of walking spontaneously, losing consciousness 5.

[2] = system: mice in oxygen deficiency at normal pressure; experiment: Resistance to oxygen-deficiency: model of oxygen deficiency at normal pressure; format: in vivo, mice of Kunming species
Description: Experimental research of the resistance to oxygen-deficiency of N-acetyl-Dglucosanime 1. Model of Oxygen Deficiency at Normal Pressure:
The mice were put into a sealed glass desiccator with a volumn of 200 ml and charged with 20 g of sodium lime to observe the survival time.
The mice of Kunming species, provided by the 3rd Military Medical University of P. R. China
Two groups had 24 mice in total, in the experimental group, two weeks before experiment, administrating N-acetyl-D-glucosanime by stomach infusion with a dosage of 0.05 g/kg, in the control group, they were normally fed.

[3] = in vivo
Source text: N-acetyl-D-glucosanime can raise the resistance to oxygen deficiency of the small mice. • III. Toxicological test of the compound of formula (I), including: • 1. acute toxicity test: including tests of administrating medicine by oral, intravenous injection and maximum limit amount for administration; • 2. Ames test; • 3. micronucleus test of bone marrow cell of mouse; • 4. abnormal sexual test for the sperm of mouse; • 5. abnormal aberrance test for the chromosin of mouse's testis; • 6. chronic lethal test; • 7. subchronic toxicity (feed for 90 days) test; • 8. traditional aberrance-inducing test;

For `CC(=O)N[C@H]1C(O)O[C@H](CO)[C@@H](O)[C@@H]1O` (stereo partly drawn) [N-acetyl-D-glucosanime, N-acetyl-D-glucosamine], which “cerebral edema degree caused by cerebral ischemia and re-infusion” value ([1]; conclusion, dosage 0.025 g/kg) is on record?
The value was “decreased obviously”.

What about the corresponding nerve symptoms ([1]; conclusion, dosage 0.025 g/kg) of the same compound?
Its corresponding nerve symptoms is “released”.

And the survival rate ([1]; conclusion, dosage 0.025 g/kg)?
The survival rate was “raised obviously”.

And the “Water content of brain” value ([1]; dry-wet weight method, medicament before clamping (N-acetyl-D-glucosanime 0.25 g/kg, Astragalus 2 g/kg in mixture), control 70.84%)?
The value was 66.2%.

And the Survival ([1]; four arteries ligation, 20 min clamping, medicament before clamping (N-acetyl-D-glucosanime 0.25 g/kg, Astragalus 2 g/kg in mixture), control 62.5%)?
The Survival was 87.5%.

And the “Abnormal ratio (symptoms of nerve behavior)” value ([1]; medicament before clamping (N-acetyl-D-glucosanime 0.25 g/kg, Astragalus 2 g/kg in mixture), control 75%)?
Its value is 50%.

And the Average survival period ([2]; 0.05 g/kg by stomach infusion, two weeks before experiment, sealed 200 ml desiccator with 20 g sodium lime, versus control group)?
Its Average survival period is “much longer than that of the control group”.

What about the “resistance to oxygen deficiency of the small mice” value ([2]; conclusion) of the same compound?
The value was “can raise”.

And the “acute test dosage relative to the injection dosage for human being” value [3]?
Its value is 300 times.

And the “dosage taken at which acute toxicosis reaction had not appeared” value [3]?
Its value is “more than 2 g/kg”.

And the “maximum dosage with no toxicosis reaction” value ([3]; 4 weeks)?
Its value is 1 g/kg.
